Some test systems named below: PC-3; NCI-H226; HCC 2998; SR; MDA-MB-231; UO-31; SN12C; A498; MDA-N; EKVX; SW-620; SF-539; SK-MEL-28; DU-145; U-251; M14; NCI/ADR-RES; TK-10; IGROV-1; KM12.
Common to all, as to test: inhibition of tumour cell growth, NCI panel, 48 h

Each structure is given as a SMILES string.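 Five concentrations, 48 hours, 96-well plates. The concentration for 50% growth inhibition is given as GI50.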 Active and inactive are the calls of the source. Rule as the data show it: active = GI50 up to about 1.1 µM and inactive = higher.

Regarding `C[n+]1c(-c2ccc(/C=C/C=N\NC(=O)c3ccc(C(=O)N/N=C\C=C\c4ccc(-c5cn6ccccc6[n+]5C)cc4)cc3)cc2)cn2ccccc21`, the GI50 in the assay with PC-3 was > 100 µM (inactive); with NCI-H226, > 100 µM (inactive); in the assay with HCC 2998 it was > 54.7 µM (inactive); with SR it was 19.9 µM (inactive); in the assay on MDA-MB-231, > 43.3 µM (inactive); with UO-31, > 100 µM (inactive). Besides, the GI50 with SN12C, with A498, in the assay on MDA-N, in the assay on EKVX, with SW-620 and in the assay on SF-539 was > 100 µM (inactive) each time. In addition, the GI50 with SK-MEL-28 was > 100 µM (inactive); in the assay with DU-145, > 54.3 µM (inactive); with U-251, 44.7 µM (inactive); with M14 it was > 100 µM (inactive); in the assay on NCI/ADR-RES it was > 100 µM (inactive); in the assay with TK-10, > 86.3 µM (inactive). Also, the GI50 was > 68.5 µM (inactive) in the assay with IGROV-1 and 39.1 µM (inactive) in the assay on KM12.
Consider `CC(C)CCC/C(CBr)=C(\Cl)CCl`, for which the GI50 is 4.76 µM (inactive) in the assay on PC-3; 7.89 µM (inactive) with NCI-H226; 8.59 µM (inactive) in the assay on HCC 2998; 0.746 µM (active) with SR; 2.81 µM (inactive) in the assay with MDA-MB-231; 3.27 µM (inactive) in the assay with UO-31. The GI50 with SN12C was 2.82 µM (inactive); in the assay on A498, 20.7 µM (inactive); in the assay on MDA-N, 1.83 µM (inactive); with EKVX it was 16.6 µM (inactive); in the assay on SW-620 it was 1.5 µM (inactive); in the assay on SF-539, 10.4 µM (inactive). In addition, the GI50 in the assay with SK-MEL-28 is 2.07 µM (inactive); in the assay with DU-145 it was 5.52 µM (inactive); in the assay on U-251, 4.04 µM (inactive); with M14, 1.93 µM (inactive); with NCI/ADR-RES, 3.27 µM (inactive); in the assay with TK-10, 1.88 µM (inactive). For the same molecule, the values for the GI50 in the assay on IGROV-1 and in the assay with KM12 were 1.6 µM (inactive) and 2.15 µM (inactive), respectively.
On to `FC1(F)[Se]C2C3CCC(C3)C2C1(F)F` (stereo not given), for which the GI50 in the assay on PC-3, in the assay on NCI-H226, with HCC 2998, with SR, in the assay with MDA-MB-231 and with UO-31 was > 100 µM (inactive) each time. Moreover, the GI50 in the assay with SN12C, in the assay on A498, in the assay with MDA-N, in the assay on EKVX, with SW-620 and in the assay on SF-539 was > 100 µM (inactive) each time. The GI50 with SK-MEL-28, with DU-145, with U-251, with M14, in the assay with NCI/ADR-RES and with TK-10 was > 100 µM (inactive) each time. Besides, the GI50 in the assay with IGROV-1 and in the assay on KM12 was > 100 µM (inactive) throughout.
Regarding `CC(=O)OCC(=O)O[C@@H]1[C@H]2[C@@H](OC(=O)c3ccccc3)[C@@H](C)C[C@]2(O)[C@H](OC(C)=O)[C@@]2(C)C(OC(C)=O)[C@]1(OC(C)=O)C[C@H]1C(=O)C(C)(C)C[C@@H]12` (stereo not given in full), the GI50 with PC-3 is > 47.9 µM (inactive); with NCI-H226 it was > 50 µM (inactive); in the assay on HCC 2998 it was 25.8 µM (inactive); with SR, > 50 µM (inactive); with MDA-MB-231, > 50 µM (inactive); with UO-31 it was > 50 µM (inactive). The GI50 in the assay with SN12C was > 50 µM (inactive); in the assay on A498, 29.1 µM (inactive); in the assay with MDA-N, 18.1 µM (inactive); in the assay with EKVX, > 42 µM (inactive); with SW-620 it was > 50 µM (inactive); in the assay with SF-539 it was 34.5 µM (inactive). The GI50 with SK-MEL-28, in the assay on DU-145, in the assay with U-251, with M14, with NCI/ADR-RES and with TK-10 was > 50 µM (inactive) in each case. For the same molecule, the GI50 with IGROV-1 and in the assay with KM12 was > 50 µM (inactive) throughout.
As to `O=C(CCc1cccc(O)c1)NCCc1cccc(OCc2ccccc2)c1`, the GI50 with PC-3 was 10.3 µM (inactive); in the assay on NCI-H226, 11.4 µM (inactive); with HCC 2998 it was 17.3 µM (inactive); in the assay with SR, 25 µM (inactive); in the assay on MDA-MB-231, 18.5 µM (inactive); with UO-31 it was 8.93 µM (inactive). Also, the GI50 with SN12C is 18.8 µM (inactive); in the assay on A498, 25.4 µM (inactive); in the assay on MDA-N, 18.6 µM (inactive); with EKVX, 21.5 µM (inactive); in the assay with SW-620, 21.3 µM (inactive); with SF-539 it was 16.8 µM (inactive). Further, the GI50 in the assay with SK-MEL-28 was 16.1 µM (inactive); in the assay on DU-145 it was 27.5 µM (inactive); with U-251 it was 16.5 µM (inactive); in the assay on M14, 16.2 µM (inactive); with NCI/ADR-RES, 18.3 µM (inactive); in the assay on TK-10 it was 24.1 µM (inactive). Also, the GI50 in the assay with IGROV-1 was 8.93 µM (inactive); in the assay with KM12, 6.81 µM (inactive).
`COc1ccc2nc(C)cc(NCCCCCCCCCNc3cc(C)nc4ccc(OC)cc34)c2c1`: the GI50 is 1.02 µM (active) in the assay with PC-3; 6.18 µM (inactive) in the assay on NCI-H226; 1.4 µM (inactive) in the assay on HCC 2998; 0.486 µM (active) in the assay on SR; 1.27 µM (inactive) in the assay on MDA-MB-231; 13.6 µM (inactive) with UO-31. Moreover, the GI50 in the assay on SN12C was 3.6 µM (inactive); with A498 it was 13.7 µM (inactive); in the assay on MDA-N it was 1.46 µM (inactive); in the assay on EKVX, 3.4 µM (inactive); with SW-620, 0.957 µM (active); with SF-539 it was 1.27 µM (inactive). The GI50 was 15 µM (inactive) in the assay with SK-MEL-28; 6.07 µM (inactive) with DU-145; 2.07 µM (inactive) in the assay with U-251; 1.95 µM (inactive) in the assay with M14; 5.43 µM (inactive) with NCI/ADR-RES; 4.66 µM (inactive) with TK-10. Besides, the GI50 was 2.99 µM (inactive) with IGROV-1 and 1.26 µM (inactive) with KM12.
Turning to `C=C1CC(COc2ccc3c(C)c(Cl)c(=O)oc3c2)(c2ccccc2)OC1=O` (stereo not given), the GI50 in the assay on PC-3 was 1.9 µM (inactive); in the assay on NCI-H226 it was 2.34 µM (inactive); in the assay with HCC 2998, 1.71 µM (inactive); in the assay with SR, 1.3 µM (inactive); in the assay on MDA-MB-231 it was 3.78 µM (inactive); with UO-31, 3.33 µM (inactive). Further, the GI50 was 6.1 µM (inactive) in the assay on SN12C; 11.8 µM (inactive) with A498; 2.07 µM (inactive) in the assay with MDA-N; 10.5 µM (inactive) in the assay with EKVX; 0.69 µM (active) with SW-620; 3.38 µM (inactive) in the assay on SF-539. Besides, the GI50 with SK-MEL-28 is 2.11 µM (inactive); in the assay with DU-145, 3.01 µM (inactive); with U-251, 8.15 µM (inactive); in the assay on M14, 1.04 µM (active); with NCI/ADR-RES it was 2.97 µM (inactive); in the assay on TK-10 it was 1.53 µM (inactive). Moreover, the GI50 in the assay with IGROV-1 was 1.94 µM (inactive); with KM12 it was 2.48 µM (inactive).
Take `CCOC(=O)c1ccc2nc(-c3ccc(S(=O)(=O)F)cc3)cc(O)c2c1`: the GI50 in the assay with PC-3 was 50.6 µM (inactive); in the assay with NCI-H226, > 100 µM (inactive); with HCC 2998, 14.5 µM (inactive); in the assay on SR, 35.5 µM (inactive); with MDA-MB-231, 36.3 µM (inactive); in the assay with UO-31, 71 µM (inactive). For the same molecule, the GI50 in the assay on SN12C was 43.9 µM (inactive); with A498, 14.8 µM (inactive); with MDA-N it was 33.5 µM (inactive); in the assay with EKVX it was > 100 µM (inactive); in the assay with SW-620, 76.7 µM (inactive); with SF-539 it was 56.5 µM (inactive). Further, the GI50 with SK-MEL-28 is 59.6 µM (inactive); in the assay on DU-145, 48.9 µM (inactive); in the assay on U-251, 34.9 µM (inactive); in the assay on M14, 40.9 µM (inactive); in the assay with NCI/ADR-RES it was > 100 µM (inactive); in the assay with TK-10 it was 27.7 µM (inactive). Also, the GI50 in the assay with IGROV-1 was 48.8 µM (inactive); in the assay on KM12 it was 29.8 µM (inactive).
Consider `CN(C)c1ccc(C=c2c3ccccc3n3c2c2c([n+]3C)CCCC2)cc1`, for which the GI50 in the assay with PC-3 is 0.219 µM (active); in the assay on NCI-H226 it was 0.447 µM (active); in the assay on HCC 2998, 0.0792 µM (active); in the assay with SR, 0.0233 µM (active); in the assay on MDA-MB-231, 0.575 µM (active); with UO-31, 1.12 µM (inactive). Also, the GI50 in the assay on SN12C was 0.146 µM (active); in the assay on A498, 0.247 µM (active); with MDA-N, 0.1 µM (active); with EKVX, 0.0227 µM (active); in the assay on SW-620, 0.118 µM (active); in the assay with SF-539, 0.165 µM (active). In addition, the GI50 with SK-MEL-28 was 0.542 µM (active); with DU-145, 0.245 µM (active); in the assay with U-251, 0.0223 µM (active); in the assay with M14 it was 0.208 µM (active); in the assay with NCI/ADR-RES, 3.17 µM (inactive); with TK-10 it was 0.207 µM (active). Further, the GI50 was 0.138 µM (active) in the assay with IGROV-1 and 0.0681 µM (active) in the assay on KM12.
In the case of `O=C(O)c1c(CC(Cc2ccccc2)C(=O)O)ccc2c1CCC2` (stereo not given), the GI50 in the assay on PC-3, with NCI-H226, with HCC 2998, with SR, in the assay with MDA-MB-231 and with UO-31 was > 100 µM (inactive) throughout. Besides, the GI50 in the assay on SN12C, in the assay with A498, in the assay with MDA-N, in the assay on EKVX, in the assay with SW-620 and in the assay on SF-539 was > 100 µM (inactive) in each case. The GI50 in the assay on SK-MEL-28 is > 100 µM (inactive); in the assay on DU-145, > 100 µM (inactive); in the assay with U-251, > 100 µM (inactive); in the assay with M14 it was > 10 µM (inactive); in the assay with NCI/ADR-RES, > 100 µM (inactive); with TK-10, > 100 µM (inactive). In addition, the GI50 in the assay with IGROV-1 and in the assay on KM12 was > 100 µM (inactive) each time.

The values are drawn from ChEMBL document CHEMBL1201862, “PubChem BioAssay data set” (2004).
